From ChEMBL document CHEMBL1201862, “PubChem BioAssay data set” (2004)
The source made the active and inactive calls.

Columns and labels:
[1] = biological target: Estrogen receptor beta (Homo sapiens, UniProt Q92731); assay: ERβ–SRC-3 coactivator interaction inhibitors, confirmation, orthogonal assay, biochemical, ELISA, streptavidin-HRP readout (AID 1060)
[2] = biological target: Cytochrome P450 2C9 (Homo sapiens, UniProt P11712); conditions: Potency
[3] = biological target: T1, Replicative DNA helicase DnaB (Mycobacterium tuberculosis, UniProt P9WMR3); assay: DnaB intein splicing inhibitors, dose response, biochemical, cell-free fluorescence (AID 449749); format: functional
T1 sequence (P9WMR3 whole entry): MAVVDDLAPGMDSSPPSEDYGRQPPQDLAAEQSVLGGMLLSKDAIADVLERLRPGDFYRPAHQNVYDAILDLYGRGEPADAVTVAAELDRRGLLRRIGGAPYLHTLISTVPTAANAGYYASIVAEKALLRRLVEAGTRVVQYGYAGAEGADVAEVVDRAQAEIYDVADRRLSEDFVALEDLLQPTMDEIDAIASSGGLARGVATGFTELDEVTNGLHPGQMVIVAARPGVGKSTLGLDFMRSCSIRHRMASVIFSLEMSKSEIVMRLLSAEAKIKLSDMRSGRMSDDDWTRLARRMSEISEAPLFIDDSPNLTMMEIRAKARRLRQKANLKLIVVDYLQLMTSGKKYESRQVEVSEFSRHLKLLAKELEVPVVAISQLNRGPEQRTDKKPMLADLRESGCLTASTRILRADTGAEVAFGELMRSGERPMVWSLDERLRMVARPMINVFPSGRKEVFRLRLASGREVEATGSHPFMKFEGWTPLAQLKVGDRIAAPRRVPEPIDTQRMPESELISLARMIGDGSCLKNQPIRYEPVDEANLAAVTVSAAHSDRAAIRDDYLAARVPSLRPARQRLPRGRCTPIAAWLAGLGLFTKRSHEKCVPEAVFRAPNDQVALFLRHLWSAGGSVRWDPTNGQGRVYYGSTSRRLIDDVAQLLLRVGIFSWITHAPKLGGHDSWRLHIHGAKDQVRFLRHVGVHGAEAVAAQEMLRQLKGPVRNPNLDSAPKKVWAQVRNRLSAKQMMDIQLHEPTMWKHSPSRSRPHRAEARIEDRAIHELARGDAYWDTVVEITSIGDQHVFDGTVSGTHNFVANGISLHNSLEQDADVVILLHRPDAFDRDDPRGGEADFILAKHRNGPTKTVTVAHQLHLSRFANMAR

[4] = biological target: T2, Mannose-6-phosphate isomerase (Homo sapiens, UniProt P34949); assay: human PMI inhibitors, high substrate, primary screen, biochemical, fluorescence intensity, high mannose 6-phosphate (AID 1220)
T2 sequence (P34949 whole entry): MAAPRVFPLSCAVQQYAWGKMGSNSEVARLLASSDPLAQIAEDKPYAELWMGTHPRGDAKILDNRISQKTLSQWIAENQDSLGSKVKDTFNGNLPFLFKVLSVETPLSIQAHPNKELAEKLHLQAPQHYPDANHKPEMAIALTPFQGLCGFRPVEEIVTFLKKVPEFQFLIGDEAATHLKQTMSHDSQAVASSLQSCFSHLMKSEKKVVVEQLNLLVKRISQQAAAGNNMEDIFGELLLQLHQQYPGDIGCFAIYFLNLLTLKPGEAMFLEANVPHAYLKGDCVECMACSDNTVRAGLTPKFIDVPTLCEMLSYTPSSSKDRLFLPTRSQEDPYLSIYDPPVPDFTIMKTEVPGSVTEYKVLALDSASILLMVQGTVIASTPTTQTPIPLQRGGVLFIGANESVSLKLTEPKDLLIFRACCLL

[5] = growth suppression of PTEN-null colon cells, dose response, cell-based, HCT116 PTEN knockout (AID 1047); format: functional;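 further: HCT116 colon tumor cells with PTEN knocked out; cells exposed to compound for 60 hours before readout; potency for loss of cell viability measured by luminescence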
[6] = growth suppression of beta-catenin-knockout colon cells, dose response, cell-based, HCT116, human colon tumor (AID 1045); format: functional;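 further: HCT116 colon tumor cells with beta catenin knocked out; cells exposed to compound for 60 hours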
[7] = biological target: T3, Protein RecA (Mycobacterium tuberculosis, UniProt P9WHJ3); assay: Fluorescence Cell-Free Homogeneous Dose Retest to Identify Inhibitors of RecA-Intein Splicing Activity. [Related pubchem assays (depositor defined):AID2097, AID2223, AID489010, AID492950]; format: functional
T3 sequence (P9WHJ3 whole entry): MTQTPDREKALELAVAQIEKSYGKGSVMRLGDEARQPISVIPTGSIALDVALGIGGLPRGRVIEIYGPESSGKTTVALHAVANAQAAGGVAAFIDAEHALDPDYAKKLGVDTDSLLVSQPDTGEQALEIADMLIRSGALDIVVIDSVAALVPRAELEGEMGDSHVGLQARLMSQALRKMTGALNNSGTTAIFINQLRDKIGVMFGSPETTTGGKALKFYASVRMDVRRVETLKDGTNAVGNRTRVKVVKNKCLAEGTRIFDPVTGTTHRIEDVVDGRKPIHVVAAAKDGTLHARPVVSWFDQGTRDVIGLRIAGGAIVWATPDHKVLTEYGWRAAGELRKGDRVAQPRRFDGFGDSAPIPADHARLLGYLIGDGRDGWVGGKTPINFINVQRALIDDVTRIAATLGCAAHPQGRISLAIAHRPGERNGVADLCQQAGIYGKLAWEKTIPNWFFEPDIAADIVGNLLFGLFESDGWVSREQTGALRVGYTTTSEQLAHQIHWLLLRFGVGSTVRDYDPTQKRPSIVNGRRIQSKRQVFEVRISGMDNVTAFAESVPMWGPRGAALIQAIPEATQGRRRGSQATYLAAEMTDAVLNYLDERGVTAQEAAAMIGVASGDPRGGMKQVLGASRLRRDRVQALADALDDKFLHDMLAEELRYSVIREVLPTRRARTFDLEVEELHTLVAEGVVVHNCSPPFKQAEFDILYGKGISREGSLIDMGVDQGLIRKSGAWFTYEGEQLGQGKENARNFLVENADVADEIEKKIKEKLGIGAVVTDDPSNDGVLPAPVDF

[8] = cytotoxicity in KRAS-transformed pancreatic duct cells, primary screen, cell-based, fluorescence, HTS (AID 431); format: functional; conditions: Homo sapiens;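 further: cell line used: HPDE-C7K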
[9] = cytotoxicity in HPDE-C7 cells, cell-based, fluorescence, HTS (AID 430); format: functional; conditions: Homo sapiens
[10] = biological target: Cytochrome P450 2C19 (Homo sapiens, UniProt P33261); assay: qHTS Assay for Inhibitors and Substrates of Cytochrome P450 2C19. [Related pubchem assays: 410 ]; format: ADME; conditions: read-out: Potency
Sequence of Cytochrome P450 2C19 (P33261 whole entry): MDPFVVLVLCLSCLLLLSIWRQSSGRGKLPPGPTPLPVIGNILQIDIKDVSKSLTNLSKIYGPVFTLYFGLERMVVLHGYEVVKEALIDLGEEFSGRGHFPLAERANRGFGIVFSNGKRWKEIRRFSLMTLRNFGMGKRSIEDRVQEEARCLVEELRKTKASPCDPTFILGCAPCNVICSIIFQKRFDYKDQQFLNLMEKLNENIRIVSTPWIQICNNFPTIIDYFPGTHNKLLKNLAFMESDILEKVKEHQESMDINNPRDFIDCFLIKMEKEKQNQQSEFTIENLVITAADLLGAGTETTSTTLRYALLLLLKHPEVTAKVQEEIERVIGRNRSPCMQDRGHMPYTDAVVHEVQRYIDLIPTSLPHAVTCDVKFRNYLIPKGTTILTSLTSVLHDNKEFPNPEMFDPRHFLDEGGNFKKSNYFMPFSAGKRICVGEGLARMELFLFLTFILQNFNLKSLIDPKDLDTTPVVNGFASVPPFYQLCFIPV

[11] = HepG2 cell cytotoxicity, dose response, cytotoxicity control for Shn3 inhibitor project, CellTiter-Glo, cherry-picked (AID 624134); format: functional, cell-based
[12] = control 3'UTR Renilla luciferase suppression, dose response, counter-screen for Shn3 inhibitor project, cell-based, Clone20-Shn3RL, cherry-picked (AID 624133); format: functional
[13] = Luminescence Cell-Based Dose Retest to Confirm Inhibitors of Cancer Stem Cells. [Related pubchem assays (depositor defined):AID2717, AID2721]; format: functional; conditions: Homo sapiens
[14] = Shn3 3'UTR reporter inhibitors, dose response, cell-based, Clone20 osteoblasts, firefly luciferase, cherry-picked (AID 624132); format: functional;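 further: firefly luciferase luminescence from reporter carrying the Shn3 3'UTR in osteoblasts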
[15] = Glucagon-like peptide 1 release potency, NCI-H716 cell line, dose-response, half-maximal inhibitory concentration (AID 1117344); format: functional, cell-based
[16] = half-maximal inhibitory concentration for glucagon-like peptide-1 release, STC-1 cell line, dose-response (AID 1117345); format: functional, cell-based
[17] = P. falciparum Dd2 growth inhibitors, dose response, SYBR Green, dry powder samples (AID 1159566); format: functional, cell-based;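 further: potency for growth inhibition with lower SYBR green DNA signal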
[18] = P. falciparum 3D7-ScDHODH growth inhibitors, dose response, SYBR Green, dry powder samples (AID 1159570); format: functional, cell-based;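 further: parasite growth measured after 72 hours of compound exposure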
[19] = HepG2 cell cytotoxicity, dose response, cytotoxicity control, plate reader, dry powder samples (AID 1159569); format: functional, cell-based;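 further: inhibitor potency with signal falling toward the positive control level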
[20] = P. falciparum Dd2 growth inhibitors, dose response, SYBR Green, cherry-picked samples (AID 1159567); format: functional, cell-based
[21] = P. falciparum ATP4 D1247Y mutant growth inhibitors, dose response, NITD609-resistant line, SYBR Green, dry powder (AID 1159571); format: functional, cell-based;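 further: parasites synchronized at ring stage by sorbitol before testing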
[22] = biological target: T4, Ubiquitin-conjugating enzyme E2 N (Homo sapiens, UniProt P61088); format: functional;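 further: Dose-response confirmation in a TR-FRET assay detecting UBC13-driven polyubiquitin chain formation, inhibition measured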
T4 sequence (P61088 whole entry): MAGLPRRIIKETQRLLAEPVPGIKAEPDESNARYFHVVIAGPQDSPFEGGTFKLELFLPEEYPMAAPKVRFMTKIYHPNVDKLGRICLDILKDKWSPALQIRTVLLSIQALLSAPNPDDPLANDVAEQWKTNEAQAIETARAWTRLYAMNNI

Sequence of Cytochrome P450 2C9 (P11712 whole entry): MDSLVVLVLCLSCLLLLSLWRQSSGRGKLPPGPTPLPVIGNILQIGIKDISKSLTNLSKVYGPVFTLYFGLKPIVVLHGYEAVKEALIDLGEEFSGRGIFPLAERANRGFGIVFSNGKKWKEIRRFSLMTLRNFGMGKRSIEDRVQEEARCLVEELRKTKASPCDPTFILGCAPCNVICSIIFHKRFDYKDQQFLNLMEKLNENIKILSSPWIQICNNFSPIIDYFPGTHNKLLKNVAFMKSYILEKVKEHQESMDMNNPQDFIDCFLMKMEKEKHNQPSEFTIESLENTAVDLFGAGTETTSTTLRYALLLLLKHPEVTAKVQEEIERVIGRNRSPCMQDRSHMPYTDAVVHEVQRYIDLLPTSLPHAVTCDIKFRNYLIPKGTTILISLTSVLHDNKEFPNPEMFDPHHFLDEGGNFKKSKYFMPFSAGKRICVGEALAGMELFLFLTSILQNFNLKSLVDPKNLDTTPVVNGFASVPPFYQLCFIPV
Sequence of Estrogen receptor beta (Q92731 whole entry): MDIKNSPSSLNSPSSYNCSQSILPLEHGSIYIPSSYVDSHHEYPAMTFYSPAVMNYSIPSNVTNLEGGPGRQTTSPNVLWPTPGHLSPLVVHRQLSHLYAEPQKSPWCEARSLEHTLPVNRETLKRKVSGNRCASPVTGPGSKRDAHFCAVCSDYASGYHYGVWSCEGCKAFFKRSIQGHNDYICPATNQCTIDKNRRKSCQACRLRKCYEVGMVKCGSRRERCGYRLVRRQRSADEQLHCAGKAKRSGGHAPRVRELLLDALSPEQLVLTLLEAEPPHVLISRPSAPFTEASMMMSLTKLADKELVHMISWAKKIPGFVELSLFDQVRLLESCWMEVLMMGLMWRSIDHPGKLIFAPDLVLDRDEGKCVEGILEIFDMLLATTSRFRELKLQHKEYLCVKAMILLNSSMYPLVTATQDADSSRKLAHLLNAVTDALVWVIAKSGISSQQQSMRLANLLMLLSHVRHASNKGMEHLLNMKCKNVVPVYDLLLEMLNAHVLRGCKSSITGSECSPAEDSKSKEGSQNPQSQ

For O=C(NCC1CCCO1)c1cc(-c2ccco2)nc2ccccc12 (stereo not drawn), the IC50 [1] was 26.4 µM (not active).
With NCCC[C@@H](CC(=O)N[C@@H]1CCCC[C@H]1C(=O)N[C@H](CC(=O)N[C@@H](CCC(=O)O)CC(=O)O)Cc1ccccc1)NC(=O)C[C@H](CO)NC(=O)[C@@H]1CNCC[C@H]1N the AC50 [2] was 39.8 µM (inconclusive).
With COc1ccc(C2NC(=O)NC3=C2CCc2ccccc23)cc1 (stereo not drawn) the AC50 [3] was > 120 µM (inactive), the IC50 [4] was 46.8 µM (active) and the EC50 [5] was 8.31 µM (active). The EC50 [6] was 9.83 µM (active) and the EC50 [7] was 4.7 µM (active).
With CCCOC(=O)c1ccc(Oc2c(C)n[nH]c2-c2ccc(O)cc2O)cc1 the EC50 [8] was 13.7 µM (active) and the EC50 [9] was 10.3 µM (active).
In the case of CC(=O)OCC1OC(c2cc(C)cc(C)c2)C=CC1OC(C)=O (stereo not drawn), the AC50 [10] is reported as 2.51 µM (inconclusive).
For CC(C)C[C@H](N)c1nnc(S(=O)(=O)Cc2ccc(F)cc2)o1, the AC50 [11] was 27.4 µM (active), the AC50 [3] was 1.4 µM (active) and the AC50 [12] was 22.1 µM (active). For the same compound, the AC50 [13] was 4.78 µM (active), the AC50 [14] was 9.02 µM (active) and the EC50 [8] was 7.91 µM (active). For the same compound, the EC50 [9] was 8.98 µM (active) and the EC50 [7] was 25.7 µM (active).
With CC1(C)Cc2c(C#N)c(NCc3ccco3)nc(-c3ccco3)c2CO1 the EC50 [8] was > 20 µM (not active) and the EC50 [9] was 10.1 µM (active).
For NCCC[C@@H](CC(=O)N[C@@H]1CCNC[C@H]1C(=O)N[C@H](CC(=O)N[C@@H](CCC(=O)O)CC(=O)O)Cc1ccccc1)NC(=O)C[C@H](CO)NC(=O)[C@@H]1CNCC[C@H]1N, the AC50 [2] was 15.8 µM (inconclusive) and the AC50 [10] was 15.8 µM (inconclusive).
For COC(=O)C1C(c2ccccc2)C2C(=O)c3c(OC)cc(OC)cc3O[C@@]12c1ccc(OC)cc1 (stereo partly drawn), the AC50 [10] was 0.001 µM (inconclusive).
For O=C(Nc1ccc(S(=O)(=O)N2CCOCC2)cc1)c1cc(Cl)ccc1NS(=O)(=O)c1ccc(Cl)s1, the IC50 [15] was > 40 µM (inactive) and the IC50 [16] was > 40 µM (inactive).
In the case of CC(C)(C)[S@+]([O-])N1Cc2cc(C(=O)NCCN3CCCCC3)nc(-c3cccc(-c4cccc(C#N)c4)c3)c2[C@@H]1CCO, the AC50 [17] is reported as 0.643 µM (active), the AC50 [18] is reported as 0.629 µM (active) and the AC50 [19] is reported as 91.7 µM (active). For the same compound, the AC50 [20] was 0.606 µM (active) and the AC50 [21] was 1.8 µM (active).
With O=C(c1cccnc1)N1CC(=O)N2[C@H](C1)[C@@H](c1ccc(-c3cccnc3)cc1)[C@@H]2CO the AC50 [17] was 0.553 µM (active), the AC50 [18] was 0.938 µM (active) and the AC50 [19] was > 100 µM (inactive). The AC50 [20] was 0.497 µM (active) and the AC50 [21] was 0.693 µM (active).
In the case of CN(C(=O)CN(CCO)CC(=O)N(C)C(C)(C)Cc1ccccc1)C(C)(C)Cc1ccccc1 [OXETHAZAINE], the IC50 [22] is reported as > 20 µM (inactive), the IC50 [15] is reported as 25.1 µM (inactive) and the IC50 [16] is reported as > 40 µM (inactive).
